Experimental data as given in patent US8436186B2, “Thiazolyl piperidine derivatives” (Merck Patent Gesellschaft mit beschrankter Haftung, priority 2008, dated 2013).

Molecular target: SphK1 (Homo sapiens, UniProt Q9NYA1)
Assay: SphK1 384-well flashplate kinase assay
Type: biochemical
Details: enzyme assay
Description: The kinase assay is carried out as a 384-well flashplate assay.
5 nM modified SphK1, 800 nM omega-biotinyl-D-erythro-sphingosine and 1 μM ATP (with 0.3 μCi of ^33P-ATP/well) are incubated in a total volume of 50 μl (25 mM HEPES, 5 mM MgCl2, 1 mM dithiothreitol, 0.01% of Brij35, 0.1% of BSA (fatty acid-free), pH 7.4) without or with test substance (5-10 concentrations) at 30° C. for 120 min. The reaction is terminated using 25 μl of 200 mM EDTA solution, filtered off with suction at room temperature after 30 min, and the cavities are washed 3 times with 100 μl of 0.9% NaCl solution. The non-specific proportion of the kinase reaction (blank) is determined using 0.5 mM NaCl. Radioactivity is measured in topcount. IC50 values are calculated using RS1.

Sequence of SphK1 (Q9NYA1 whole entry): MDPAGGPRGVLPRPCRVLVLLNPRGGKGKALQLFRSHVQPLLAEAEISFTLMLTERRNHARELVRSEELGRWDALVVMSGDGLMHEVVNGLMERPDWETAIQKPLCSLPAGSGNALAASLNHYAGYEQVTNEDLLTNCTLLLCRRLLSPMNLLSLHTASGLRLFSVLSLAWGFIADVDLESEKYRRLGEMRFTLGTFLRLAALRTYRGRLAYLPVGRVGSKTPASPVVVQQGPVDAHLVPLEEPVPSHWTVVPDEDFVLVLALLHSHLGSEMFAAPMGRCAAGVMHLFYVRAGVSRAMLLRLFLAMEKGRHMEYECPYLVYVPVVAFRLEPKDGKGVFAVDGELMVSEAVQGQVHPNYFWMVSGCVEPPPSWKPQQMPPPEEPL

| IC50 [nM] | SMILES |
| --- | --- |
| 10 to 1000 | CC1(C)CCC(C)(C)c2cc(-c3csc(C4CCN(Cc5cc[nH]n5)CC4)n3)ccc21 [Compound B7] |
| 10 to 1000 | CC1(C)CCC(C)(C)c2cc(-c3csc(C4CCN(C[C@H](O)CO)CC4)n3)ccc21 [Compound A22] |
| 1000 to 10000 | CN(C)CCN1CCC(c2nc(-c3ccc4c(c3)C(C)(C)CCC4(C)C)cs2)CC1 [Compound A4] |
| > 10000 | COc1ccccc1N1CCN(CCN2CCC(c3nc(-c4ccc5c(c4)C(C)(C)CCC5(C)C)cs3)CC2)CC1 [Compound A35] |
| > 10000 | CN1CCCC(COC(=O)N2CCC(c3nc(-c4ccc5c(c4)C(C)(C)CCC5(C)C)cs3)CC2)C1 (stereo not shown) [Compound A50] |
| 1000 to 10000 | CC1(C)CCC(C)(C)c2cc(-c3csc(C4CCN(C(=O)[C@@H](N)CO)CC4)n3)ccc21 [Compound A64] |
| 1000 to 10000 | OCCCN1CCC(c2nc(-c3ccc4c(c3)CCCC4)cs2)CC1 [Compound A13] |
| 10 to 1000 | CC1(O)CCCc2cc(-c3csc(C4CCNCC4)n3)ccc21 (stereo not shown) [Compound C2] |
| 1000 to 10000 | CC1(C)CCC(C)(C)c2cc(-c3csc(C4CCN(CCN5CCCC5)CC4)n3)ccc21 [Compound A21] |
| > 10000 | CN(C)CC(C)(C)CN1CCC(c2nc(-c3ccc4c(c3)C(C)(C)CCC4(C)C)cs2)CC1 [Compound A76] |
| 1000 to 10000 | COCC(C)NC(=O)N1CCC(c2nc(-c3ccc4c(c3)C(C)(C)CCC4(C)C)cs2)CC1 (stereo not shown) [Compound A78] |
| > 10000 | CC1(C)CCC(C)(C)c2cc(-c3csc(C4CCN(C(=O)NCC(N)=O)CC4)n3)ccc21 [Compound A44] |
| 1000 to 10000 | CCN1CCCC(N2CCC(c3nc(-c4ccc5c(c4)C(C)(C)CCC5(C)C)cs3)CC2)C1 (stereo not shown) [Compound A2, 1′-ethyl-4-[4-(5,5,8,8-tetramethyl-5,6,7,8-tetrahydronaphthalen-2-yl)thiazol-2-yl]-[1,3]bipiperidinyl] |
| 10 to 1000 | CC1(C)CCC(C)(C)c2cc(-c3csc(C4CCN(CCCN5CCCCC5)CC4)n3)ccc21 [Compound A28] |
| 10 to 1000 | CC1(C)CCC(C)(C)c2cc(-c3csc(C4CCN(CCCCCO)CC4)n3)ccc21 [Compound B10] |
| 1000 to 10000 | CC1(C)CCC(C)(C)c2cc(-c3csc(C4CCN(C(=O)[C@@H](N)Cc5cnc[nH]5)CC4)n3)ccc21 [Compound A63, (S)-2-amino-3-(3H-imidazol-4-yl)-1-{4-[4-(5,5,8,8-tetramethyl-5,6,7,8-tetrahydronaphthalen-2-yl)thiazol-2-yl]piperidin-1-yl}-propan-1-one] |
| 1000 to 10000 | CC1(C)CCC(C)(C)c2cc(-c3csc(C4CCN(C(=O)[C@@H](N)CC(N)=O)CC4)n3)ccc21 [Compound A69] |
| 10 to 1000 | CC1(C)CCC(C)(C)c2cc(-c3csc(C4CCN(CCCCO)CC4)n3)ccc21 [Compound B2] |
| 1000 to 10000 | Cn1cccc1CN1CCC(c2nc(-c3ccc4c(c3)C(C)(C)CCC4(C)C)cs2)CC1 [Compound B8] |
| 1000 to 10000 | CCN(CC)C(=O)CN1CCC(c2nc(-c3ccc4c(c3)C(C)(C)CCC4(C)C)cs2)CC1 [Compound A18] |
| 1000 to 10000 | CC1(C)CCC(C)(C)c2cc(-c3csc(C4CCN(Cc5ccccn5)CC4)n3)ccc21 [Compound A77] |
| 10 to 1000 | CC1(C)CCC(C)(C)c2cc(-c3csc(C4CCN(CCO)CC4)n3)ccc21 [Compound A9] |
| 1000 to 10000 | Cc1oncc1S(=O)(=O)N1CCC(c2nc(-c3ccc4c(c3)C(C)(C)CCC4(C)C)cs2)CC1 [Compound A82] |
| > 10000 | CCc1cc2c(cc1-c1csc(C3CCNCC3)n1)C(C)(C)CCC2(C)C [Compound C11] |
| 1000 to 10000 | CC1(C)CCC(C)(C)c2cc(-c3csc(C4CCN(CCCN5CCOCC5)CC4)n3)ccc21 [Compound B1] |
| 1000 to 10000 | CC1(C)CCC(C)(C)c2cc(-c3csc(C4CCN(CC(N)=O)CC4)n3)ccc21 [Compound A8] |
| 1000 to 10000 | Cc1cc2c(cc1-c1csc(C3CCNCC3)n1)C(C)(C)CCC2(C)C [Compound C5] |
| 10 to 1000 | CC1(C)CC(C)(C)c2cc(-c3csc(C4CCN(CCCCO)CC4)n3)ccc21 [Compound B6] |
